Source: patent US20250040539A1, “COMPOSITION COMPRISING AN ANTIMICROBIAL AGENT AND A CARBOXAMIDE” (BASF SE, priority 2021, published 2025)

Tests used:
Type in all cases: cell-based
[1] = system: bacterial mix: Escherichia coli DSM 1576, Alcaligenes faecalis DSM 13644, Pseudomonas aeruginosa ATCC 15442, Staphylococcus aureus ATCC 6538, Burkholderia …; assay: Preservative activity of a basic composition (10% PG in water, pH 7) with 4,4'-dichloro-2-hydroxydiphenyl ether (diclosan) against bacterial contamination (Example 2.2); settings: day 7
Description: (§1) An aqueous composition of pH 7 comprising 10% by weight of propyleneglycol (PG) as organic solvent, 0.015% by weight of 4,4′-dichloro-2-hydroxydiphenyl ether (diclosan) as antimicrobial and 0.04 or 0.1% by weight of the amides listed in the below table was tested for its preserving activity against bacterial contamination (the weight percentages relate to the total weight of the composition). For this purpose, the samples were contaminated with a bacterial mix consisting of: • Escherichia coli DSM 1576 • Alcaligenes faecalis DSM 13644 • Pseudomonas aeruginosa ATCC 15442 • Staphylococcus aureus ATCC 6538 • Burkholderia cepacia DSM 7288 • Pseudomonas putida DSM 12735
(§2) The samples were inoculated with the bacterial mix at day 0 to obtain 10E+06 to 10E+07 CFU/ml inoculation in the test sample and stored at 25° C. for 7 days.
(§3) CFU was determined at day 7.
Any CFU value at day 7 (d7) obtained with a sample according to the invention containing diclosan and amide (10% PG+0.015% diclosan+Amide in water) lower than the respective value of the “comparative 3” example (10% by weight of propyleneglycol+0.015% by weight of 4,4′-dichloro-2-hydroxydiphenyl ether (diclosan) in water) indicates a better performance.

[2] = system: bacterial mix: Escherichia coli DSM 1576, Alcaligenes faecalis DSM 13644, Pseudomonas aeruginosa ATCC 15442, Staphylococcus aureus ATCC 6538, Burkholderia …; assay: Preservative activity of a basic composition (10% PG in water, pH 7) with 1,2-benzisothiazol-3(2H)-one (BIT) against bacterial contamination (Example 2.3); settings: day 7
Description: as §1, with “0.004%” for “0.015%”, “1,2-benzisothiazol-3(2H)-one (BIT)” for “4,4′-dichloro-2-hydroxydiphenyl ether (diclosan)”, “0.04%” for “0.04 or 0.1%”, “amide” for “amides”, “(the percentages are” for “(the”, “percent and” for “percentages”
as §2, §3
Any CFU value at day 7 (d7) obtained with a sample according to the invention containing BIT and amide (10% PG+0.004% BIT+Amide in water) lower than the respective value of the “comparative 2” example (10% by weight of propyleneglycol+0.004% by weight of 1,2-benzisothiazol-3(2H)-one (BIT) in water) indicates a better performance.

[3] = system: bacterial mix: Escherichia coli DSM 1576, Alcaligenes faecalis DSM 13644, Pseudomonas aeruginosa ATCC 15442, Staphylococcus aureus ATCC 6538, Burkholderia …; assay: Preservative activity in a manual dishwashing composition (MDW, pH 7.1) with 1.0% 2-phenoxyethanol against bacterial mix (Example 2.5); settings: MDW + 1.0% PE, no amide (Comparative)
Description: A manual dish wash detergent (MOW) of pH 7.1 containing the following components was used:
(§4) The samples were contaminated with a bacterial mix consisting of: • Escherichia coli DSM 1576 • Alcaligenes faecalis DSM 13644 • Pseudomonas aeruginosa ATCC 15442 • Staphylococcus aureus ATCC 6538 • Burkholderia cepacia DSM 7288 • Pseudomonas putida DSM 12735
The samples were inoculated with the bacterial mix at day 0 and 7 to obtain 10E+06 to 10E+07 CFU/ml inoculation in the test sample and stored at 25° C. for 21 days. CFU was determined before re-inoculation at day 7 and on day 21.
Any CFU value at day 7 (d7) or day 21 (d21) obtained with a sample according to the invention containing 2-phenoxyethanol and amide (MDW+1.0% PE+1.0% Amide) lower than the respective value of the comparative example (MDW+1% by weight of 2-phenoxyethanol) indicates a better performance.

[4] = system: bacterial mix: Escherichia coli DSM 1576, Alcaligenes faecalis DSM 13644, Pseudomonas aeruginosa ATCC 15442, Staphylococcus aureus ATCC 6538, Burkholderia …; assay: Preservative activity in a manual dishwashing composition (MDW, pH 7.1) with 2.0% 2-phenoxyethanol against bacterial mix (Example 2.4); settings: MDW + 2.0% PE, no amide (Comparative 2)
Description: A manual dish wash detergent (MDW) of pH 7.1 containing the following components was used:
as §4
The samples were inoculated with the bacterial mix at day 0 and 7 to obtain 10E+06 to 10E+07 CFU/ml inoculation in the test sample and stored at 25° C. for 21 days. CFU was determined before re-inoculation at day 7 and on days 14 and 21.
Any CFU value at day 7 (d7), day 14 (d14) or day 21 (d21) obtained with a sample according to the invention containing 2-phenoxyethanol and amide (MDW+2.0% PE+x % Amide) lower than the respective value of the “comparative 2” example (MOW+2.0% by weight of 2-phenoxyethanol) indicates a better performance.

[5] = system: fungal mix: Aspergillus brasiliensis DSM 1988, Rhodotorula mucilaginosa DSM 13621, Yarrowia lipolytica DSM 8218; assay: Preservative activity in a hard surface cleaner composition (HSC, pH 7.0) with 2-phenoxyethanol against fungal mix (Example 1.5); settings: HSC + 1.35% PE, no amide (Comparative 2)
Description: A manual hard surface cleaner (HSC) of pH 7.0 containing the following components was used:
The samples were contaminated with a fungal mix consisting of: • Aspergillus brasiliensis DSM 1988 • Rhodotorula mucilaginosa DSM 13621 • Yarrowia lipolytica DSM 8218
The samples were inoculated with the fungal mix at day 0 and 7 to obtain 1-3×10E+05 CFU/ml inoculation in the test sample consisting of the above-defined hard surface cleaner HSC and stored at 25° C. for 21 days. CFU was determined before re-inoculation at day 7, and on days 14 and 21.

[6] = system: bacterial mix: Escherichia coli DSM 1576, Alcaligenes faecalis DSM 13644, Pseudomonas aeuginosa ATCC 15442, Staphylococcus aureus ATCC 6538, Burkholderia …; assay: Preservative activity of a basic composition (10% PG in water, pH 7) with 2-phenoxyethanol against bacterial contamination (Example 2.1); settings: 10% PG + 0.4% PE, no amide (Comparative 2)

Row | Structure (SMILES) | d7 [CFU/ml] ([1]; 10% PG + 0.015% diclosan + 0.1% amide) | d7 [CFU/ml] ([1]; 10% PG + 0.1% amide, no diclosan (Comparative 1b)) | d7 [CFU/ml] ([2]; 10% PG + 0.004% BIT + 0.04% amide) | d7 [CFU/ml] ([2]; 10% PG + 0.1% amide, no BIT (Comparative 1)) | d7 [CFU/ml] ([3]; day 7) | d21 [CFU/ml] ([3]; day 21) | d7 [CFU/ml] ([4]; day 7) | d14 [CFU/ml] ([4]; day 14) | d21 [CFU/ml] ([4]; day 21) | d7 [CFU/ml] ([5]; day 7) | d14 [CFU/ml] ([5]; day 14) | d21 [CFU/ml] ([5]; day 21) | d7 [CFU/ml] ([6]; day 7) | d14 [CFU/ml] ([6]; day 14) | d21 [CFU/ml] ([6]; day 21)
1 | CCCCCCCCCC(=O)N(C)C [n-Decanoyl-N,N-dimethylamide] | 43,000 CFU/ml | >100,000 CFU/ml | 4,000 CFU/ml | >100,000 CFU/ml |  |  |  |  |  |  |  |  |  |  | 
2 | OCCOc1ccccc1 [PE, 2-phenoxyethanol, reference compound] |  |  |  |  | 820 CFU/ml | 135 CFU/ml | 330 CFU/ml | 2,800 CFU/ml | 38,500 CFU/ml | 37,000 CFU/ml | 36,000 CFU/ml | 3200 CFU/ml | 65,000 CFU/ml | >100,000 CFU/ml | >100,000 CFU/ml
